In paper PMC8777785, “Antimicrobial Activity of Snake β-Defensins and Derived Peptides” (Toxins, 2021):
Converted amounts (≈) assume the structure as drawn. Residues, ends and D or L forms follow the SMILES beside them.

Experiments:
[1] = system: Klebsiella pneumonia; test: Microbroth dilution assay, MIC; assay type: cell-based, Klebsiella pneumoniae; details: short derived peptides, 2.75 to 700 µg/mL, overnight 37 °C, read at 600 nm, three independent experiments
Procedure: (§1) The β-defensins were tested using a microbroth dilution assay. It consists of incubating the bacteria (4.105 colony-forming unit—CFU/mL) and the peptide (from 1 to 512 µg/mL) in liquid broth. After the incubation at 37 °C during the night, the bacterial growth was detected by spectrophotometry at 600 nm. If the measure is similar to the broth, it […]. […] The β-defensins were tested against B. jararaca oral flora because it would be of biological and medical interest. In addition, we tested on E. coli ATCC 25922 and M. luteus that are common Gram-negative and Gram-positive bacteria used in antibacterial tests.
(§2) The antibacterial activity of the alkylated peptides was tested against Gram-negative (G−) bacteria (Klebsiella pneumonia, Serratia marcescens, Morganella morganii, Providencia rettgeri, Citrobacter freundii, Escherichia coli ATCC 25922 and Gram-positive (G+) bacteria (Micrococcus luteus A270 and Staphylococcus aureus) using microbroth assay. In a 96-well plate, 90 µL of 10% tryptone soy broth (TSB) with 4 × 10^5 colony-forming unit (CFU/mL) were mixed with serial twofold dilutions of β-defensins duplicate in concentrations from 512 to 1 µg/mL. The derived peptides coded as PS1, PS2, PS3, PS5, and PS6 (Table 1) were tested against these bacteria in serial twofold dilutions with concentrations bellow 700 µg/mL. After overnight incubation at 37 °C, the turbidity of the bacterial culture was read at 600 nm (Epoch microplate reader, Biotek). The minimal inhibitory concentration (MIC) of each peptide was determined as the lowest concentration that results in no visible bacterial growth. The MIC resulted from three independent experiments. The bacteria K. pneumonia, S. marcescens, M. morganii, P. rettgeri, C. freundii, M. luteus A270 and S. aureus were isolated from Bothrops jararaca buccal flora and kindly provided by Dr. Márcia R. Franzolin (Laboratory of Bacteriology—Instituto Butantan). M. luteus was kindly provided by Dr. Pedro I. da Silva Jr. (Laboratory of Applied Toxinology—Instituto Butantan).

[2] = system: Citrobacter freundii; test: Microbroth dilution assay, MIC; assay type: cell-based; details: short derived peptides, 2.75 to 700 µg/mL, overnight 37 °C, read at 600 nm, three independent experiments
Procedure: as §1, §2

[3] = system: Escherichia coli ATCC 25922; test: Microbroth dilution assay, MIC; assay type: cell-based; details: short derived peptides, 2.75 to 700 µg/mL, overnight 37 °C, read at 600 nm, three independent experiments
Procedure: as §1, §2

[4] = system: Micrococcus luteus A270; test: Microbroth dilution assay, MIC; assay type: cell-based; details: short derived peptides, 2.75 to 700 µg/mL, overnight 37 °C, read at 600 nm, three independent experiments
Procedure: as §1, §2

[5] = system: Staphylococcus aureus; test: Microbroth dilution assay, MIC; assay type: cell-based; details: short derived peptides, 2.75 to 700 µg/mL, overnight 37 °C, read at 600 nm, three independent experiments
Procedure: as §1, §2

[6] = system: Aspergillus fumigatus (IOC 4526); test: Resazurin microtiter assay plate, antifungal MIC90; assay type: cell-based; details: resazurin colour change, RPMI 1640, 1 to 250 μM, 28 °C, 24–72 h; three independent experiments
Procedure: (§3) The derived peptides were also tested against fungi species using the classical resazurin microtiter assay plate method. It is based on the color change of the rezazurin dye that in blue indicates the absence of growth in at least 90%, and pink refers to microorganism growth. MIC is determined as the minimal concentration of the sample that can prevent the color change from blue to pink and refers to the inhibition of 90% of microorganisms.
(§4) The antifungal activity was evaluated by the microdilution assay as previously described on clinical strains of Candida albicans (IOC 4525), Cryptococcus neoformans (IOC 4528), Trichophyton rubrum (IOC 4527) and Aspergillus fumigatus (IOC 4526). The fungi were cultivated in potato dextrose agar at 28 °C according to the Clinical and Laboratory Standards Institute recommendations. Fungal suspensions were prepared in RPMI 1640 culture media; the CFU/mL was adjusted to 0.5–2.5 × 10^3 for yeasts (C. albicans and C. neoformans) and 0.4–5 × 10^4 CFU/mL for filamentous fungi (T. rubrum e A. fumigatus), by comparison with a standard curve previously stablished in our laboratory.
(§5) The peptides PS1, PS2, PS, PS3, PS4, PS5 and PS6 at 1 mM in acetic acid at 0.01% were diluted in RPMI 1640 culture media at concentrations ranging from 1 to 250 μM. Amphotericin B (AMB) at concentrations below 15 μg/mL (16 μM) and acetic acid from 0.0002 to 0.0025% was used as control.
(§6) The fungi suspensions were added to a 96 well plate (100 µL/well) and the samples (100 µL) in different concentrations were added to each well. The plate was incubated at 28 °C for 24–72 h, and 24 h before the end of the assay 25 µL of the rezazurin dye at 0.02% were added to each well. The minimal inhibitory concentration (MIC90) was defined as the lowest concentration that prevents the rezazurin’s change in color from blue to pink due to the inhibition of at least 90% of the microorganism’s growth. The assays were performed in three independent experiments.

[7] = system: Trichophyton rubrum (IOC 4527); test: Resazurin microtiter assay plate, antifungal MIC90; assay type: cell-based; details: resazurin colour change, RPMI 1640, 1 to 250 μM, 28 °C, 24–72 h; three independent experiments
Procedure: as §3, §4, §5, §6

[8] = system: Candida albicans (IOC 4525); test: Resazurin microtiter assay plate, antifungal MIC90; assay type: cell-based; details: resazurin colour change, RPMI 1640, 1 to 250 μM, 28 °C, 24–72 h; three independent experiments
Procedure: as §3, §4, §5, §6

[9] = system: Cryptococcus neoformans (IOC 4528); test: Resazurin microtiter assay plate, antifungal MIC90; assay type: cell-based; details: resazurin colour change, RPMI 1640, 1 to 250 μM, 28 °C, 24–72 h; three independent experiments
Procedure: as §3, §4, §5, §6

Row | SMILES | MIC, K. pneumoniae [1] [µM] | MIC, C. freundii [2] [µM] | MIC, E. coli [3] [µM] | MIC, M. luteus [4] [µM] | MIC, S. aureus [5] [µM] | MIC90, Aspergillus fumigatus [6] [µM] | MIC90, Trichophyton rubrum [7] [µM] | MIC90, Candida albicans [8] [µM] | MIC90, Cryptococcus neoformans [9] [µM]
1 | N=C(N)NCCC[C@H](NC(=O)[C@H](Cc1c[nH]c2ccccc12)NC(=O)[C@H](CCCNC(=N)N)NC(=O)[C@@H](N)CO)C(=O)N[C@@H](Cc1c[nH]c2ccccc12)C(=O)N[C@@H](CCCCN)C(=O)N[C@@H](CO)C(=O)N[C@@H](CO)C(=O)N[C@@H](CCCCN)C(=O)N[C@@H](CCCCN)C(=O)NCC(=O)N[C@@H](CO)C(=O)NCC(=O)O [PS1] (H-SRWRWKSSKKGSG-OH) | >452 | 113 (≈ 175 µg/mL) | 56.5 (≈ 87.6 µg/mL) | 28.4 (≈ 44 µg/mL) | 56.5 (≈ 87.6 µg/mL) | >250 | >250 | >250 | >250
2 | N=C(N)NCCC[C@H](NC(=O)CNC(=O)[C@@H]1CCCN1C(=O)CNC(=O)[C@@H](N)CO)C(=O)N[C@@H](CCCNC(=N)N)C(=O)N[C@@H](CO)C(=O)N[C@@H](CO)C(=O)N[C@@H](CCCNC(=N)N)C(=O)N[C@@H](CCCNC(=N)N)C(=O)N[C@@H](CCCNC(=N)N)C(=O)N[C@@H](Cc1c[nH]c2ccccc12)C(=O)N[C@@H](CCCCN)C(=O)O [PS5] (H-SGPGRRSSRRRWK-OH) | 27.7 (≈ 43.9 µg/mL) | 110 (≈ 174 µg/mL) | 55.2 (≈ 87.5 µg/mL) | 13.9 (≈ 22 µg/mL) | 27.7 (≈ 43.9 µg/mL) | >250 | >250 | >250 | >250
3 | CSCC[C@H](NC(=O)[C@H](CCC(N)=O)NC(=O)[C@@H](N)CO)C(=O)NCC(=O)N[C@@H](CCC(N)=O)C(=O)N[C@@H](CCSC)C(=O)N[C@@H](CO)C(=O)N[C@@H](CO)C(=O)N[C@@H](CCCNC(=N)N)C(=O)N[C@@H](CCCNC(=N)N)C(=O)N[C@@H](CCCNC(=N)N)C(=O)N[C@@H](Cc1ccccc1)C(=O)NCC(=O)N[C@@H](CCCCN)C(=O)O [PS4] (H-SQMGQMSSRRRFGK-OH) | >423 | >423 | >423 | 26.6 (≈ 44 µg/mL) | >423 | >250 | >250 | >250 | >250
4 | CSCC[C@H](NC(=O)[C@H](CCC(N)=O)NC(=O)[C@@H](N)CO)C(=O)NCC(=O)N[C@@H](CCCNC(=N)N)C(=O)N[C@@H](CCSC)C(=O)N[C@@H](CO)C(=O)N[C@@H](CO)C(=O)N[C@@H](CCCNC(=N)N)C(=O)N[C@@H](CCCNC(=N)N)C(=O)N[C@@H](CCCNC(=N)N)C(=O)N[C@@H](Cc1ccccc1)C(=O)NCC(=O)N[C@@H](CCCCN)C(=O)O [PS2] (H-SQMGRMSSRRRFGK-OH) | >415 | >415 | 415 (≈ 699 µg/mL) | 26.1 (≈ 44 µg/mL) | 415 (≈ 699 µg/mL) | >250 | >250 | >250 | >250
